Results reported in ChEMBL document CHEMBL3885881, “DrugMatrix”.
Values joined by “and” are separate entries in the source; they are usually repeats but may differ in a detail not shown here. Equal values may be shown once.

Organism: Rattus norvegicus
Assay: DrugMatrix - Regimen: Daily Repeat
Type: toxicity, organism-based, Sprague-Dawley
Parameters: regimen Daily Repeat, gender Male, age 6-8 weeks
Settings: in vivo, po, route oral GAVAGE, vehicle .5 % CMC; for ABSOLUTE BASOPHIL / ABSOLUTE EOSINOPHIL / ABSOLUTE LYMPHOCYTE / ABSOLUTE MONOCYTE / BASOPHIL / EOSINOPHIL / ERYTHROCYTE COUNT / HEMATOCRIT / HEMOGLOBIN / LEUKOCYTE COUNT / LYMPHOCYTE / MEAN CORPUSCULAR HEMOGLOBIN / MEAN CORPUSCULAR HEMOGLOBIN CONCENTRATION / MEAN CORPUSCULAR VOLUME / MONOCYTE / NEUTROPHIL / PLATELET COUNT / ABSOLUTE SEGMENTED NEUTROPHIL / NUCLEATED RED BLOOD CELLS: tissue Blood; for ALANINE AMINOTRANSFERASE / ALBUMIN / ALKALINE PHOSPHATASE / ASPARTATE AMINOTRANSFERASE / BLOOD UREA NITROGEN / CARBON DIOXIDE / CHLORIDE / CHOLESTEROL / CREATINE PHOSPHOKINASE / CREATININE / GLUCOSE / LACTATE DEHYDROGENASE / LIPASE / PHOSPHORUS / POTASSIUM / SODIUM / TOTAL BILIRUBIN / TOTAL PROTEIN / URIC ACID: tissue Plasma
[1] = 10 mg/kg, […], dose level Low, time 14 day
[2] = 100 mg/kg, 72 h, dose level High, time 3 day
[3] = 100 mg/kg, 120 h, dose level High, time 5 day
[4] = 100 mg/kg, […], dose level High, time 14 day

`CN(C)CCN(Cc1cccs1)c1ccccn1` gave an ABSOLUTE BASOPHIL [1] of 83.3 cells/µL, an ABSOLUTE EOSINOPHIL [1] of 66.7 cells/µL and an ABSOLUTE LYMPHOCYTE [1] of 10000 cells/µL. The ABSOLUTE MONOCYTE [1] was 240 cells/µL, the BASOPHIL [1] was 0.53% and the EOSINOPHIL [1] was 0.52%. For the same molecule, the “ERYTHROCYTE COUNT” value [1] was 7.47 x10E6/uL, the HEMATOCRIT [1] was 47.12% and the HEMOGLOBIN [1] was 14.82 G/DL. The “LEUKOCYTE COUNT” value [1] was 12.98 x10E3/uL, the LYMPHOCYTE [1] was 76.93% and the “MEAN CORPUSCULAR HEMOGLOBIN” value [1] was 19.85 pg. The “MEAN CORPUSCULAR HEMOGLOBIN CONCENTRATION” value [1] was 31.43 G/DL, the “MEAN CORPUSCULAR VOLUME” value [1] was 63.1 fL and the MONOCYTE [1] was 1.83%. The NEUTROPHIL [1] was 19.2%, the “PLATELET COUNT” value [1] was 1264.5 x10E3/uL and the “ALANINE AMINOTRANSFERASE” value [1] was 47.67 u/L. The ALBUMIN [1] was 3.87 G/DL, the “ALKALINE PHOSPHATASE” value [1] was 477 u/L and the “ASPARTATE AMINOTRANSFERASE” value [1] was 81.33 u/L. For the same molecule, the “BLOOD UREA NITROGEN” value [1] was 14.83 mg/dL, the “CARBON DIOXIDE” value [1] was 38.33 mmol/L and the CHLORIDE [1] was 105.17 MEQ/L. The CHOLESTEROL [1] was 68.67 mg/dL, the “CREATINE PHOSPHOKINASE” value [1] was 223.17 u/L and the CREATININE [1] was 0.68 mg/dL. The GLUCOSE [1] was 155.83 mg/dL, the “LACTATE DEHYDROGENASE” value [1] was 95.83 u/L and the LIPASE [1] was 18.67 u/L. For the same molecule, the PHOSPHORUS [1] was 10.72 mg/dL, the POTASSIUM [1] was 6.3 MEQ/L and the SODIUM [1] was 151.83 MEQ/L. For the same molecule, the “TOTAL BILIRUBIN” value [1] was 0.27 mg/dL, the “TOTAL PROTEIN” value [1] was 6.77 G/DL and the “URIC ACID” value [1] was 1.22 mg/dL. For the same molecule, the “ABSOLUTE BASOPHIL” value [2] was 0 CELLS/uL, the “ABSOLUTE EOSINOPHIL” value [2] was 62.67 CELLS/uL and the “ABSOLUTE LYMPHOCYTE” value [2] was 11170 CELLS/uL. For the same molecule, the “ABSOLUTE MONOCYTE” value [2] was 125.33 CELLS/uL, the “ABSOLUTE SEGMENTED NEUTROPHIL” value [2] was 1608.67 CELLS/uL and the BASOPHIL [2] was 0%. For the same molecule, the EOSINOPHIL [2] was 0.33%, the “ERYTHROCYTE COUNT” value [2] was 5.22 x10E6/uL and the HEMATOCRIT [2] was 32.67%. The HEMOGLOBIN [2] was 12.17 G/DL, the “LEUKOCYTE COUNT” value [2] was 12.97 x10E3/uL and the LYMPHOCYTE [2] was 81.67%. For the same molecule, the “MEAN CORPUSCULAR HEMOGLOBIN” value [2] was 23.37 pg, the “MEAN CORPUSCULAR HEMOGLOBIN CONCENTRATION” value [2] was 37.27 G/DL and the “MEAN CORPUSCULAR VOLUME” value [2] was 62.6 fL. The MONOCYTE [2] was 0.67%, the NEUTROPHIL [2] was 17.33% and the “NUCLEATED RED BLOOD CELLS” value [2] was 0 /100WBC. For the same molecule, the “PLATELET COUNT” value [2] was 1093.67 x10E3/uL, the “ALANINE AMINOTRANSFERASE” value [2] was 71.33 u/L and the ALBUMIN [2] was 3.77 G/DL. For the same molecule, the “ALKALINE PHOSPHATASE” value [2] was 555.67 u/L, the “ASPARTATE AMINOTRANSFERASE” value [2] was 110.67 u/L and the “BLOOD UREA NITROGEN” value [2] was 15.67 mg/dL. The “CARBON DIOXIDE” value [2] was 32.33 mmol/L, the CHLORIDE [2] was 99.67 MEQ/L and the CHOLESTEROL [2] was 134.33 mg/dL. For the same molecule, the “CREATINE PHOSPHOKINASE” value [2] was 382 u/L, the CREATININE [2] was 0.22 mg/dL and the GLUCOSE [2] was 140 mg/dL. The “LACTATE DEHYDROGENASE” value [2] was 129.67 u/L, the LIPASE [2] was 11.33 u/L and the PHOSPHORUS [2] was 12.07 mg/dL. For the same molecule, the POTASSIUM [2] was 5.88 MEQ/L, the SODIUM [2] was 143.37 MEQ/L and the “TOTAL BILIRUBIN” value [2] was 0.47 mg/dL. The “TOTAL PROTEIN” value [2] was 5.77 G/DL, the “URIC ACID” value [2] was 0.43 mg/dL and the “ABSOLUTE SEGMENTED NEUTROPHIL” value [3] was 1008.67 CELLS/uL. For the same molecule, the BASOPHIL [3] was 0.97% and 0%, the EOSINOPHIL [3] was 0.55% and 0% and the “ERYTHROCYTE COUNT” value [3] was 7.33 x10E6/uL and 5.52 x10E6/uL. The HEMATOCRIT [3] was 45.42% and 34.13%, the HEMOGLOBIN [3] was 14.18 G/DL and 13.07 G/DL and the “LEUKOCYTE COUNT” value [3] was 20.78 x10E3/uL and 14.4 x10E3/uL. For the same molecule, the LYMPHOCYTE [3] was 80.47% and 90%, the “MEAN CORPUSCULAR HEMOGLOBIN” value [3] was 19.32 pg and 23.73 pg and the “MEAN CORPUSCULAR HEMOGLOBIN CONCENTRATION” value [3] was 31.2 G/DL and 38.33 G/DL. The “MEAN CORPUSCULAR VOLUME” value [3] was 61.95 fL and 61.97 fL, the MONOCYTE [3] was 3.85% and 3% and the NEUTROPHIL [3] was 12.68% and 7%. For the same molecule, the “NUCLEATED RED BLOOD CELLS” value [3] was 0 /100WBC, the “PLATELET COUNT” value [3] was 1277.75 x10E3/uL and 1530.33 x10E3/uL and the “ALANINE AMINOTRANSFERASE” value [3] was 138.25 u/L and 130.33 u/L. For the same molecule, the ALBUMIN [3] was 3.45 G/DL and 4.23 G/DL, the “ALKALINE PHOSPHATASE” value [3] was 618 u/L and 531.33 u/L and the “ASPARTATE AMINOTRANSFERASE” value [3] was 321 u/L and 308.67 u/L. For the same molecule, the “BLOOD UREA NITROGEN” value [3] was 15.75 mg/dL and 15.33 mg/dL, the “CARBON DIOXIDE” value [3] was 37 mmol/L and 36.67 mmol/L and the CHLORIDE [3] was 104.75 MEQ/L and 97.67 MEQ/L. For the same molecule, the CHOLESTEROL [3] was 98.5 mg/dL and 113.67 mg/dL, the “CREATINE PHOSPHOKINASE” value [3] was 398.5 u/L and 603.33 u/L and the CREATININE [3] was 0.5 mg/dL and 0.25 mg/dL. For the same molecule, the GLUCOSE [3] was 151.25 mg/dL and 120.33 mg/dL, the “LACTATE DEHYDROGENASE” value [3] was 162.5 u/L and 250.33 u/L and the LIPASE [3] was 17 u/L and 9.67 u/L. For the same molecule, the PHOSPHORUS [3] was 11.03 mg/dL and 12.1 mg/dL, the POTASSIUM [3] was 6.62 MEQ/L and 5.82 MEQ/L and the SODIUM [3] was 151 MEQ/L and 142.77 MEQ/L. For the same molecule, the “TOTAL BILIRUBIN” value [3] was 0.4 mg/dL and 0.37 mg/dL, the “TOTAL PROTEIN” value [3] was 5.72 G/DL and 6.2 G/DL and the “URIC ACID” value [3] was 1.07 mg/dL and 0.63 mg/dL. It also gave an ABSOLUTE BASOPHIL [4] of 150 cells/µL, an ABSOLUTE EOSINOPHIL [4] of 75 cells/µL and an ABSOLUTE LYMPHOCYTE [4] of 12900 cells/µL. The ABSOLUTE MONOCYTE [4] was 390 cells/µL, the BASOPHIL [4] was 0.77% and the EOSINOPHIL [4] was 0.5%. For the same molecule, the “ERYTHROCYTE COUNT” value [4] was 8.39 x10E6/uL, the HEMATOCRIT [4] was 49.5% and the HEMOGLOBIN [4] was 15.85 G/DL. For the same molecule, the “LEUKOCYTE COUNT” value [4] was 15.58 x10E3/uL, the LYMPHOCYTE [4] was 82.28% and the “MEAN CORPUSCULAR HEMOGLOBIN” value [4] was 18.95 pg. The “MEAN CORPUSCULAR HEMOGLOBIN CONCENTRATION” value [4] was 32.1 G/DL, the “MEAN CORPUSCULAR VOLUME” value [4] was 59.02 fL and the MONOCYTE [4] was 2.45%. For the same molecule, the NEUTROPHIL [4] was 12.85%, the “PLATELET COUNT” value [4] was 1440.5 x10E3/uL and the “ALANINE AMINOTRANSFERASE” value [4] was 70.83 u/L. For the same molecule, the ALBUMIN [4] was 3.47 G/DL, the “ALKALINE PHOSPHATASE” value [4] was 569.83 u/L and the “ASPARTATE AMINOTRANSFERASE” value [4] was 277.5 u/L. For the same molecule, the “BLOOD UREA NITROGEN” value [4] was 17.17 mg/dL, the “CARBON DIOXIDE” value [4] was 33.83 mmol/L and the CHLORIDE [4] was 106.33 MEQ/L. For the same molecule, the CHOLESTEROL [4] was 60.17 mg/dL, the “CREATINE PHOSPHOKINASE” value [4] was 264.5 u/L and the CREATININE [4] was 0.7 mg/dL. For the same molecule, the GLUCOSE [4] was 134.5 mg/dL, the “LACTATE DEHYDROGENASE” value [4] was 165.67 u/L and the LIPASE [4] was 22.2 u/L. For the same molecule, the PHOSPHORUS [4] was 11.25 mg/dL, the POTASSIUM [4] was 6.93 MEQ/L and the SODIUM [4] was 150.83 MEQ/L. The “TOTAL BILIRUBIN” value [4] was 0.65 mg/dL, the “TOTAL PROTEIN” value [4] was 5.93 G/DL and the “URIC ACID” value [4] was 1.82 mg/dL.
